Patent publication US20260242391A1 (priority 2023, published 2026)

Key:
in vitro = conditions: human
HL-60 = HL-60 differentiation potency; assay type: cell-based; conditions: Homo sapiens

| Compound | IC50 (in vitro) [µM] | EC50 (HL-60) [nM] |
| --- | --- | --- |
| C[C@H]1[C@@H](OCC2(O)CCC(C(=O)O)CC2)O[C@@H]2O[C@@]3(C)CC[C@H]4[C@H](C)CC[C@@H]1[C@@]24OO3 (stereo partly drawn) [Compound 211, 4-hydroxy-4-((((3R,5aS,6R,8aS, 9R,10S,12R, 12aR)-3,6,9-trimethyldeca-hydro-12H-3,12-epoxy[1,2]dioxepino[4,3-i]isochromen-10-yl)oxy)methyl) cyclohexane-1-carboxylic acid] | > 20 | 11400 |
| C[C@H]1[C@@H](OC[C@H]2CCC(C(=O)O)CO2)O[C@@H]2O[C@@]3(C)CC[C@H]4[C@H](C)CC[C@@H]1[C@@]24OO3 (stereo partly drawn) [Compound 212, (6R)-6-((((3R,5aS,6R,8aS, 9R,10S,12R, 12aR)-3,6,9-trimethyldeca-hydro-12H-3,12-epoxy[1,2]dioxepino[4,3-i]isochromen-10-yl)oxy)methyl) tetrahydro-2H-pyran-3-carboxylic acid] | > 20 | 20500 |
| C[C@H]1[C@@H](OCC(=O)Nc2ccc(C(=O)O)cc2)O[C@@H]2O[C@@]3(C)CC[C@H]4[C@H](C)CC[C@@H]1[C@@]24OO3 [Compound 213, 4-(2-(((3R,5aS,6R,8aS, 9R,10S,12R, 12aR)-3,6,9-trimethyldeca-hydro-12H-3,12-epoxy[1,2]dioxepino[4,3-i]isochromen-10-yl)oxy)actamido) benzoic acid] | > 20 | 325 |
| C[C@H]1[C@@H](Oc2ccc3cc(C(=O)O)ccc3c2)O[C@@H]2O[C@@]3(C)CC[C@H]4[C@H](C)CC[C@@H]1[C@@]24OO3 [Compound 214, 6-(((3R,5aS,6R,8aS, 9R,10S,12R, 12aR)-3,6,9-trimethyldeca-hydro-12H-3,12-epoxy[1,2]dioxepino[4,3-i]isochromen-10-yl)oxy)-2-naphthoic acid] | 0.22 | 53.7 |
| C[C@H]1[C@@H](OCc2c(F)cc(C(=O)O)cc2Cl)O[C@@H]2O[C@@]3(C)CC[C@H]4[C@H](C)CC[C@@H]1[C@@]24OO3 [Compound 215, 3-chloro-5-fluoro-4-((((3R,5aS,6R,8aS, 9R,10S,12R, 12aR)-3,6,9-trimethyldeca-hydro-12H-3,12-epoxy[1,2]dioxepino[4,3-i]isochromen-10-yl)oxy)methyl) benzoic acid] | 5.51 | 66.5 |
| C[C@H]1[C@@H](OCc2c(Cl)cc(C(=O)O)cc2S(C)(=O)=O)O[C@@H]2O[C@@]3(C)CC[C@H]4[C@H](C)CC[C@@H]1[C@@]24OO3 [Compound 216, 3-chloro-5-(methylsulfonyl)-4-((((3R,5aS,6R,8aS, 9R,10S,12R, 12aR)-3,6,9-trimethyldeca-hydro-12H-3,12-epoxy[1,2]dioxepino[4,3-i]isochromen-10-yl)oxy)methyl) benzoic acid] | > 20 | 7180 |
| C[C@H]1[C@H](OCc2c(Cl)cc(C(=O)O)cc2S(C)(=O)=O)O[C@@H]2O[C@@]3(C)CC[C@H]4[C@H](C)CC[C@@H]1[C@@]24OO3 [Compound 217, 3-chloro-5-(methylsulfonyl)-4-((((3R,5aS,6R,8aS, 9R,10R,12R, 12aR)-3,6,9-trimethyldeca-hydro-12H-3,12-epoxy[1,2]dioxepino[4,3-i]isochromen-10-yl)oxy)methyl) benzoic acid] | 3 | 53.1 |
| C[C@H]1[C@@H](Oc2ccc(OCC(=O)O)cc2Cl)O[C@@H]2O[C@@]3(C)CC[C@H]4[C@H](C)CC[C@@H]1[C@@]24OO3 [Compound 218, 2-(3-chloro-4-(((3R,5aS,6R,8aS, 9R,10S,12R, 12aR)-3,6,9-trimethyldeca-hydro-12H-3,12-epoxy[1,2]dioxepino[4,3-i]isochromen-10-yl)oxy)phenoxy) acetic acid] | 0.69 | 101 |
| C[C@H]1[C@@H](Oc2ccc(COCC(=O)O)cc2)O[C@@H]2O[C@@]3(C)CC[C@H]4[C@H](C)CC[C@@H]1[C@@]24OO3 [Compound 219, 2-((4-(((3R,5aS,6R,8aS, 9R,10S,12R, 12aR)-3,6,9-trimethyldeca-hydro-12H-3,12-epoxy[1,2]dioxepino[4,3-i]isochromen-10-yl)oxy)benzyl)oxy)acetic acid] | 13.1 | 62 |
| C[C@H]1[C@@H](Oc2cc(F)cc(OCC(=O)O)c2)O[C@@H]2O[C@@]3(C)CC[C@H]4[C@H](C)CC[C@@H]1[C@@]24OO3 [Compound 220, 2-(3-fluoro-5-(((3R,5aS,6R,8aS, 9R,10S,12R, 12aR)-3,6,9-trimethyldeca-hydro-12H-3,12-epoxy[1,2]dioxepino[4,3-i]isochromen-10-yl)oxy)phenoxy) acetic acid] | 1.88 | 70.8 |
| C[C@H]1[C@@H](Oc2ccc(OC(C)(C)C(=O)O)cc2)O[C@@H]2O[C@@]3(C)CC[C@H]4[C@H](C)CC[C@@H]1[C@@]24OO3 [Compound 221, 2-methyl-2-(4-(((3R,5aS,6R,8aS, 9R,10S,12R, 12aR)-3,6,9-trimethyldeca-hydro-12H-3,12-epoxy[1,2]dioxepino[4,3-i]isochromen-10-yl)oxy)phenoxy) propanoic acid] | 9.61 | 124 |
| C[C@H]1[C@@H](OCC2(F)CCCC(C(=O)O)C2)O[C@@H]2O[C@@]3(C)CC[C@H]4[C@H](C)CC[C@@H]1[C@@]24OO3 (stereo partly drawn) [Compound 222, 3-fluoro-3-((((3R,5aS,6R,8aS, 9R,10S,12R, 12aR)-3,6,9-trimethyldeca-hydro-12H-3,12-epoxy[1,2]dioxepino[4,3-i]isochromen-10-yl)oxy)methyl) cyclohexane-1-carboxylic acid] | 19 | 134 |
| C[C@H]1[C@@H](OCc2ccc(OCC(=O)O)cc2Cl)O[C@@H]2O[C@@]3(C)CC[C@H]4[C@H](C)CC[C@@H]1[C@@]24OO3 [Compound 223, 2-(3-chloro-4-((((3R,5aS,6R,8aS, 9R,10S,12R, 12aR)-3,6,9-trimethyldeca-hydro-12H-3,12-epoxy[1,2]dioxepino[4,3-i]isochromen-10-yl)oxy)methyl)phenoxy)acetic acid] | 2.84 | 111 |
| C[C@H]1[C@@H](O[C@H]2CC[C@@H](OCC(=O)O)CC2)O[C@@H]2O[C@@]3(C)CC[C@H]4[C@H](C)CC[C@@H]1[C@@]24OO3 [Compound 224, 2-(((1R,4s)-4-(((3R,5aS,6R,8aS, 9R,10S,12R, 12aR)-3,6,9-trimethyldeca-hydro-12H-3,12-epoxy[1,2]dioxepino[4,3-i]isochromen-10-yl)oxy)cyclohexyl)oxy)acetic acid] | > 20 | 8040 |
| C[C@H]1[C@@H](OC2CCc3cc(C(=O)O)ccc32)O[C@@H]2O[C@@]3(C)CC[C@H]4[C@H](C)CC[C@@H]1[C@@]24OO3 (stereo partly drawn) [Compound 226, 1-(((3R,5aS,6R,8aS, 9R,10S,12R, 12aR)-3,6,9-trimethyldeca-hydro-12H-3,12-epoxy[1,2]dioxepino[4,3-i]isochromen-10-yl)oxy)-2,3-dihydro-1H-indene-5-carboxylic acid] | 12 | 51.2 |
| C[C@H]1[C@@H](Oc2ccc(OC3CCC(C(=O)O)C3)cc2)O[C@@H]2O[C@@]3(C)CC[C@H]4[C@H](C)CC[C@@H]1[C@@]24OO3 (stereo partly drawn) [Compound 227, 3-(4-(((3R,5aS,6R,8aS, 9R,10S,12R, 12aR)-3,6,9-trimethyldeca-hydro-12H-3,12-epoxy[1,2]dioxepino[4,3-i]isochromen-10-yl)oxy)phenoxy) cyclopentane-1-carboxylic acid] | 0.7 | 32.9 |
| C[C@H]1[C@@H](O[C@H]2CC[C@@H](C(=O)N[C@H]3C[C@@H](C(=O)O)C3)CC2)O[C@@H]2O[C@@]3(C)CC[C@H]4[C@H](C)CC[C@@H]1[C@@]24OO3 [Compound 228, (1S,3s)-3-((1R,4S)-4-(((3R,5aS,6R,8aS, 9R,10S,12R, 12aR)-3,6,9-trimethyldeca-hydro-12H-3,12-epoxy[1,2]dioxepino[4,3-i]isochromen-10-yl)oxy)cyclo-hexane-1-carboxamido) cyclobutane-1-carboxylic acid] | > 20 | 9200 |
| C[C@H]1[C@@H](O[C@H]2CC[C@@H](C(=O)N[C@H](C(=O)O)C(C)(C)C)CC2)O[C@@H]2O[C@@]3(C)CC[C@H]4[C@H](C)CC[C@@H]1[C@@]24OO3 [Compound 229, (S)-3,3-dimethyl-2-((1R,4R)-4-(((3R,5aS,6R,8aS, 9R,10S,12R, 12aR)-3,6,9-trimethyldeca-hydro-12H-3,12-epoxy[1,2]dioxepino[4,3-i]isochromen-10-yl)oxy)cyclohexane-1-carboxamido) butanoic acid] | > 20 | 204 |
| C[C@H]1[C@@H](Oc2ccccc2OCC(=O)O)O[C@@H]2O[C@@]3(C)CC[C@H]4[C@H](C)CC[C@@H]1[C@@]24OO3 [Compound 230, 2-(2-(((3R,5aS,6R,8aS, 9R,10S,12R, 12aR)-3,6,9-trimethyldeca-hydro-12H-3,12-epoxy[1,2]dioxepino[4,3-i]isochromen-10-yl)oxy)phenoxy) acetic acid] | > 20 | 2870 |
| C[C@H]1[C@@H](Oc2ccc(C(=O)N[C@H](C(=O)O)C3CCCCC3)cc2)O[C@@H]2O[C@@]3(C)CC[C@H]4[C@H](C)CC[C@@H]1[C@@]24OO3 [Compound 231, (S)-2-cyclohexyl-2-(4-(((3R,5aS,6R,8aS, 9R,10S,12R, 12aR)-3,6,9-trimethyldeca-hydro-12H-3,12-epoxy[1,2]dioxepino[4,3-i]isochromen-10-yl)oxy)benzamido)acetic acid] | 0.08 | 17 |
| C[C@H]1[C@@H](Oc2ccc(C(=O)N[C@H]3CC[C@@H](C(=O)O)C3)cc2Cl)O[C@@H]2O[C@@]3(C)CC[C@H]4[C@H](C)CC[C@@H]1[C@@]24OO3 [Compound 232, (1R,3S)-3-(3-chloro-4-(((3R,5aS,6R,8aS, 9R,10S,12R, 12aR)-3,6,9-trimethyldeca-hydro-12H-3,12-epoxy[1,2]dioxepino[4,3-i]isochromen-10-yl)oxy)benzamido)cyclo-pentane-1-carboxylic acid] | 0.62 | 29.9 |
| C[C@H]1[C@@H](Oc2ccc(C(=O)N[C@H](C(=O)O)c3ccccc3)cc2)O[C@@H]2O[C@@]3(C)CC[C@H]4[C@H](C)CC[C@@H]1[C@@]24OO3 [Compound 234, (S)-2-phenyl-2-(4-(((3R,5aS,6R,8aS, 9R,10S,12R, 12aR)-3,6,9-trimethyldeca-hydro-12H-3,12-epoxy[1,2]dioxepino[4,3-i]isochromen-10-yl)oxy)benzamido) acetic acid] | 1.27 | 112 |
